Source: patent US5484778A, “Phthalocyanine photosensitizers for photodynamic therapy and methods for their use” (priority 1993, dated 1996)

Columns and labels:
[1] = test system: L5178Y cells; experiment: Induction of apoptosis (DNA fragmentation) in L5178Y-R cells (Table 6); assay type: cell-based, mouse; conditions: 0.4 μM
Procedure, shortened: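 Exponentially growing mouse lymphoma L5178Y-R cells loaded 18 hours with phthalocyanine at various concentrations, then irradiated with >600 nm red light (up to 30 kJ/m^2, ~74 W/m^2). DNA isolated 2 hours post-PDT, run on 1.5% agarose; value is minimum PDT dose (concentration × fluence) giving visible DNA ladder.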

[2] = test system: RIF-1 tumors; experiment: PDT of RIF-1 implanted tumors (Table 7); assay type: in vivo, C3H/HeN mice; conditions: for effect on tumor volume / growth (in words): 1 mg/kg
Procedure, shortened: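 C3H/HeN mice each carried one RIF-1 fibrosarcoma on the back and received 1 mg/kg phthalocyanine as a corn-oil suspension. Volume was measured daily by calipers from a 50±10 mm^3 start and calculated with the hemiellipsoid model.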

[3] = test system: human squamous cell carcinoma; experiment: PDT of human squamous cell carcinoma in athymic nude mice (Table 9); assay type: in vivo, Harlen-Sprague Dawley athymic nude mice; conditions: 1.0 mg/kg; for % Tumor Response: 24 hours post illumination; for % Tumor Cure: 7 days post treatment
Experimental: A single cell suspension of human squamous cell carcinoma was injected subcutaneously into the back of Harlen-Sprague Dawley athymic nude mice. […]

[4] = Solubility

Compound: CN(C)CCC[Si](C)(C)O[Si]1(O)n2c3c4ccccc4c2N=C2N=C(N=c4c5ccccc5c(n41)=NC1=NC(=N3)c3ccccc31)c1ccccc12 (stereo not drawn) [Compound IV, HOSiPcOsi(CH3)2)(CH2)3 N(CH3)2]
- Minimum Demonstrated Condition to induce apoptosis: C × F [1]: 1.2 μm × kJ/m^2
- Minimum Demonstrated Condition to induce apoptosis: Fluence [1]: 3.0 kJ/m^2
- Doubling Time of Initial Tumor Volume after PDT ([2]; 1 mg/kg in corn oil, 675 nm, 135 J/cm^2): 16 days
- effect on tumor volume / growth (in words) ([2]; listed as Pc IV): significantly impair the growth of the tumors
- effect on tumor volume / growth (in words) ([2]; listed as PcIV): particularly effective in reducing tumor volume
- tumor regrowth ([2]; after PDT, from the tumor margins): regrowth of tumors from the tumor margins occurred
- % Tumor Response ([3]; 35 J/cm^2 675 nm, 15 min): 40%
- % Tumor Cure ([3]; 35 J/cm^2 675 nm, 15 min): 0%
- % Tumor Response ([3]; 75 J/cm^2 675 nm, 15 min): 80%
- % Tumor Cure ([3]; 75 J/cm^2 675 nm, 15 min): 60%
- % Tumor Response ([3]; 135 J/cm^2 675 nm, 15 min): 100%
- % Tumor Cure ([3]; 135 J/cm^2 675 nm, 15 min): 100%
- % Tumor Response ([3]; no light): 0%
- % Tumor Cure ([3]; no light): 0%
- solubility in solvents [4]: soluble in CH2 Cl2 and toluene
